Results from patent publication US20130172384A1, “FATTY ACID SYNTHASE INHIBITORS” (GlaxoSmithKline Intellectual Property Development Limited, priority 2010, published 2013).

Biological target: FAS (Homo sapiens, UniProt P49327)
Assay: FAS assay (Assay #1 residual NADPH detection or Assay #2 CoA detection with CPM dye)
Type: biochemical
Settings: inhibition of FAS; measured by one of two assays; one experiment or average of multiple experiments
Procedure: FAS activity was measured through one of the two following assays.
Inhibition of FAS activity can be measured based on the detection of residual NADPH substrate after the FAS assay is quenched. This assay is run as a 10 μL endpoint assay in 384-well format, where the reaction contains 20 μM malonyl-CoA, 2 μM acetyl-CoA, 30 μM NADPH and 40 nM FAS in 50 mM sodium phosphate, pH 7.0. The assay is run by sequentially dispensing 5 μl of a malonyl-CoA solution, then enzyme solution (containing the acetyl-CoA, and NADPH) into a black, low volume assay plate (Greiner 784076) pre-dispensed with 100 nL compound solutions in DMSO. The reaction is incubated at ambient temperature for 60 minutes, then quenched with 5 μL of a developing solution composed of 90 μM resazurin, 0.3 IU/ml diaphorase in 50 mM sodium phosphate, pH 7.0. The developed reaction is read on a Molecular Devices Analyst or Acquest (or equivalent) plate reader using a 530 nm excitation wavelength filter, a 580 nm emission filter, and 561 nm dichroic filter. The test compounds are prepared in neat DMSO at a concentration of 10 mM. For inhibition curves, compounds are diluted using a three fold serial dilution and tested at 11 concentrations (e.g. 25 μM-0.42 nM). Curves are analysed using ActivityBase and XLfit, and results are expressed as pIC50 values.
Inhibition of FAS can also be quantified based on the detection of the CoA products with a thio-reactive coumarin dye. This assay is run as a 10 μL endpoint assay in 384-well format, where the reaction contains 20 μM malonyl-CoA, 20 μM acetyl-CoA, 40 μM NADPH and 2 nM FAS in 50 mM sodium phosphate, pH 7.0, and 0.04% Tween-20. The assay is run by adding 5 μL enzyme solution to a black, low volume assay plate (Greiner 784076) pre-dispensed with 100 nl compound solutions in DMSO. After 30 minutes, 5 μL substrate is added, and the reaction incubated at ambient temperature for an additional 60 minutes. The reaction is then quenched with 10 μL of 6M guanidine-HCl containing 50 μM CPM (7-diethylamino-3-(4′-maleimidylphenyl)-4-methylcoumarin (CPM; thio-reactive dye), and incubated for 30 minutes. The plate is read on an Envision (PerkinElmer) or equivalent plate reader using a 380 nm excitation wavelength filter, and a 486 nm emission filter. Data fitting and compound preparations are done as described above.

Chain of FAS (P49327 whole entry): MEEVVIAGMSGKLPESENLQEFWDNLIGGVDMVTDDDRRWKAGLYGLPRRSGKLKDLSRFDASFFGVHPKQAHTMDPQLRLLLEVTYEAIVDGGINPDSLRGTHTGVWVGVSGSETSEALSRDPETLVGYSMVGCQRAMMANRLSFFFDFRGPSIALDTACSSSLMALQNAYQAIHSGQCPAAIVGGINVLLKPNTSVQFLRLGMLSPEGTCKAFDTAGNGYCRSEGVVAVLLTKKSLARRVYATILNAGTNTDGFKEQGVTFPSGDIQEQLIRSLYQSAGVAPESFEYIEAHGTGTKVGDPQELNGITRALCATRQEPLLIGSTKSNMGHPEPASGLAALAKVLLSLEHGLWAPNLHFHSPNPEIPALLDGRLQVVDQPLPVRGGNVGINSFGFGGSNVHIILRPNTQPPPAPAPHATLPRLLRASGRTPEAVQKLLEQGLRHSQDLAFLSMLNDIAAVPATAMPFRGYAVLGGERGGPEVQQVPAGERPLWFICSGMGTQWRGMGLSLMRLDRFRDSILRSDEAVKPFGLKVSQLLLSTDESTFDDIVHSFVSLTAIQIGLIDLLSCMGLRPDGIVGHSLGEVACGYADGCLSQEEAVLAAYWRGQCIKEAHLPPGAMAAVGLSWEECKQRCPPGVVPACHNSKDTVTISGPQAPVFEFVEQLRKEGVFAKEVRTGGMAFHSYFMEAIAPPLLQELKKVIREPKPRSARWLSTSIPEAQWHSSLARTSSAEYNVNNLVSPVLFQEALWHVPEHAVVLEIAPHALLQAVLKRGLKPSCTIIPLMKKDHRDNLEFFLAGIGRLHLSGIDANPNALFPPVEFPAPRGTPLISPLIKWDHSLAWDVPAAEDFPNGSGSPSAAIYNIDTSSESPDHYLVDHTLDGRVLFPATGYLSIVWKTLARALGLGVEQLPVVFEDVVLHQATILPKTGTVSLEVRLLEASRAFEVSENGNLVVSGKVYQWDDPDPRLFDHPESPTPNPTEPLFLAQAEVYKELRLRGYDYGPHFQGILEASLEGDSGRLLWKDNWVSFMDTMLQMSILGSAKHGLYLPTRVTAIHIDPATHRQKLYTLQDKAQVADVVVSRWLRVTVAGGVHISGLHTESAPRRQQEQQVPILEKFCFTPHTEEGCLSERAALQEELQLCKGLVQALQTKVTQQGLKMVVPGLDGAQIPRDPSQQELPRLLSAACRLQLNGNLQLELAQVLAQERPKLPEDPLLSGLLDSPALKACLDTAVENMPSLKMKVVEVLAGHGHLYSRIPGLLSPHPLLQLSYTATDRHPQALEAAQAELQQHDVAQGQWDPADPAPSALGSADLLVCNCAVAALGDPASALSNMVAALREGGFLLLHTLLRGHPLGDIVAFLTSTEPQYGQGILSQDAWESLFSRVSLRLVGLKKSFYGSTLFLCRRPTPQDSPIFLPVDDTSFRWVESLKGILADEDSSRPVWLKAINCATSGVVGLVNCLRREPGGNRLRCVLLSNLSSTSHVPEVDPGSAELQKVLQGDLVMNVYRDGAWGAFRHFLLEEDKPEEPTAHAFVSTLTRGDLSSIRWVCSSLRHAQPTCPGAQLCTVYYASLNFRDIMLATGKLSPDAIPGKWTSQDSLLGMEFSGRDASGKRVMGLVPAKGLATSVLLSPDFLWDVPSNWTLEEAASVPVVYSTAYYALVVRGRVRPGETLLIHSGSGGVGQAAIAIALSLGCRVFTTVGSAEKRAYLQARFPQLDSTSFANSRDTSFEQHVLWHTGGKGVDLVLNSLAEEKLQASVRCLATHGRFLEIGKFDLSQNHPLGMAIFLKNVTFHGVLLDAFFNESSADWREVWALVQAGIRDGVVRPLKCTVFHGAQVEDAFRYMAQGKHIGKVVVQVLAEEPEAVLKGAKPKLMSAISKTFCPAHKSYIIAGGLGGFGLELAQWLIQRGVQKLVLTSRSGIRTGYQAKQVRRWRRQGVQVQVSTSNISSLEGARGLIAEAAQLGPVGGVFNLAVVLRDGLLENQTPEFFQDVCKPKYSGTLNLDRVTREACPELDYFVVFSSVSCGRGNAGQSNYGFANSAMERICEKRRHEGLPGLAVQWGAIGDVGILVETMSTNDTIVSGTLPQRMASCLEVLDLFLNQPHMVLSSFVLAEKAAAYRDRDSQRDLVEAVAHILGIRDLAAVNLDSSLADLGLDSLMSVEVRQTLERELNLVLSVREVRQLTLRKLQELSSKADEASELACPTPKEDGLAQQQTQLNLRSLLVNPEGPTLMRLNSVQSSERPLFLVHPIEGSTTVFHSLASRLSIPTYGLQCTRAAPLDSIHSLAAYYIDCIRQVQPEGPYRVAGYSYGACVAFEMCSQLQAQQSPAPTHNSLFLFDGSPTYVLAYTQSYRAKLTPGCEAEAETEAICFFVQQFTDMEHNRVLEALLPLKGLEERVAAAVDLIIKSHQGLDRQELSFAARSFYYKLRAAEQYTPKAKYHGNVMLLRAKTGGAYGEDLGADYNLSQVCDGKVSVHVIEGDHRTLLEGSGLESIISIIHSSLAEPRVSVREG

IC50 [nM]	Compound
158	Cn1nc(-c2ccc(-c3ccc4occc4c3)c(F)c2)n(C[C@@H]2CCN(C(=O)C3CC3)C2)c1=O [Example 2, 5-[4-(1-benzofuran-5-yl)-3-fluorophenyl]-4-{[(3R)-1-(cyclopropylcarbonyl)-3-pyrrolidinyl]methyl}-2-methyl-2,4-dihydro-3H-1,2,4-triazol-3-one]
25	O=C(C1CC1)N1CC[C@@H](Cn2c(-c3ccc(-c4ccc5cc[nH]c5c4)c(F)c3)n[nH]c2=O)C1 [Example 4, 4-{[(3R)-1-(cyclopropylcarbonyl)-3-pyrrolidinyl]methyl}-5-[3-fluoro-4-(1H-indol-6-yl)phenyl]-2,4-dihydro-3H-1,2,4-triazol-3-one]
40	O=C(C1CC1)N1CC[C@@H](Cn2c(-c3ccc(-c4ccc(F)cc4)cc3Cl)n[nH]c2=O)C1 [Example 20, 5-(3-chloro-4′-fluoro-4-biphenylyl)-4-{[(3R)-1-(cyclopropylcarbonyl)-3-pyrrolidinyl]methyl}-2,4-dihydro-3H-1,2,4-triazol-3-one]
4	O=C(C1CC1)N1CC[C@@H](Cn2c(-c3ccc(-c4ccc5cc[nH]c5c4)cc3)n[nH]c2=O)C1 [Example 21, 4-{[(3R)-1-(cyclopropylcarbonyl)-3-pyrrolidinyl]methyl}-5-[4-(1H-indol-6-yl)phenyl]-2,4-dihydro-3H-1,2,4-triazol-3-one]
79	COc1ccc(-c2ccc(-c3nn(C)c(=O)n3C[C@@H]3CCN(C(=O)C4CC4)C3)cc2)c(Cl)c1 [Example 35, 5-[2′-chloro-4′-(methyloxy)-4-biphenylyl]-4-{[(3R)-1-(cyclopropylcarbonyl)-3-pyrrolidinyl]methyl}-2-methyl-2,4-dihydro-3H-1,2,4-triazol-3-one]
263	O=C(C1CC1)N1CC[C@@H](Cn2c(-c3ccc(-c4ccc(F)cc4)cc3)nn(Cc3ccccc3)c2=O)C1 [Example 42, 4-{[(3R)-1-(cyclopropylcarbonyl)-3-pyrrolidinyl]methyl}-5-(4′-fluoro-4-biphenylyl)-2-(phenylmethyl)-2,4-dihydro-3H-1,2,4-triazol-3-one]
16	O=C(C1CC1)N1CC[C@@H](Cn2c(-c3ccc(-c4ccc(Cl)cc4)cc3F)n[nH]c2=O)C1 [Example 47, 5-(4′-chloro-3-fluoro-4-biphenylyl)-4-{[(3R)-1-(cyclopropylcarbonyl)-3-pyrrolidinyl]methyl}-2,4-dihydro-3H-1,2,4-triazol-3-one]
40	CN(C)S(=O)(=O)Nc1cccc(-c2ccc(-c3n[nH]c(=O)n3C[C@@H]3CCN(C(=O)C4CC4)C3)cc2)c1 [Example 49, N′-[4′-(4-{[(3R)-1-(cyclopropylcarbonyl)-3-pyrrolidinyl]methyl}-5-oxo-4,5-dihydro-1H-1,2,4-triazol-3-yl)-3-biphenylyl]-N,N-dimethylsulfamide]
2000	O=C(C1CC1)N1CC[C@@H](Cn2c(-c3ccc(-c4ccc(F)nc4)cc3)n[nH]c2=O)C1 [Example 58, 4-{[(3R)-1-(cyclopropylcarbonyl)-3-pyrrolidinyl]methyl}-5-[4-(6-fluoro-3-pyridinyl)phenyl]-2,4-dihydro-3H-1,2,4-triazol-3-one]
79	N#Cc1ccc(-c2ccc(-c3n[nH]c(=O)n3C[C@@H]3CCN(C(=O)C4CC4)C3)cc2)cc1 [Example 66, 4′-(4-{[(3R)-1-(cyclopropylcarbonyl)-3-pyrrolidinyl]methyl}-5-oxo-4,5-dihydro-1H-1,2,4-triazol-3-yl)-4-biphenylcarbonitrile]
20	O=C(C1CC1)N1CC[C@@H](Cn2c(-c3ccc(-c4cccc5ncccc45)cc3)n[nH]c2=O)C1 [Example 71, 4-{[(3R)-1-(cyclopropylcarbonyl)-3-pyrrolidinyl]methyl}-5-[4-(5-quinolinyl)phenyl]-2,4-dihydro-3H-1,2,4-triazol-3-one]
398	O=C(C1CC1)N1CC[C@@H](Cn2c(-c3ccc(-c4cn5ccccc5n4)cc3)n[nH]c2=O)C1 [Example 78, 4-{[(3R)-1-(cyclopropylcarbonyl)-3-pyrrolidinyl]methyl}-5-(4-imidazo[1,2-a]pyridin-2-ylphenyl)-2,4-dihydro-3H-1,2,4-triazol-3-one]
100	O=C(C1CC1)N1CC[C@@H](Cn2c(-c3ccc(-c4ccn5ccnc5c4)cc3)n[nH]c2=O)C1 [Example 79, 4-{[(3R)-1-(cyclopropylcarbonyl)-3-pyrrolidinyl]methyl}-5-(4-imidazo[1,2-a]pyridin-7-ylphenyl)-2,4-dihydro-3H-1,2,4-triazol-3-one]
16	CC(C)C(=O)N1CC[C@@H](Cn2c(-c3ccc(-c4ccc5occc5c4)cc3)n[nH]c2=O)C1 [Example 91, 5-[4-(1-benzofuran-5-yl)phenyl]-4-{[(3R)-1-(2-methylpropanoyl)-3-pyrrolidinyl]methyl}-2,4-dihydro-3H-1,2,4-triazol-3-one]
25	CN(C)C(=O)N1CC[C@@H](Cn2c(-c3ccc(-c4ccc5occc5c4)cc3)n[nH]c2=O)C1 [Example 92, (3R)-3-({3-[4-(1-benzofuran-5-yl)phenyl]-5-oxo-1,5-dihydro-4H-1,2,4-triazol-4-yl}methyl)-N,N-dimethyl-1-pyrrolidinecarboxamide]
4	CC1(C(=O)N2CC[C@@H](Cn3c(-c4ccc(-c5ccc6occc6c5)cc4)n[nH]c3=O)C2)CC1 [Example 97, 5-[4-(1-benzofuran-5-yl)phenyl]-4-({(3R)-1-[(1-methylcyclopropyl)carbonyl]-3-pyrrolidinyl}methyl)-2,4-dihydro-3H-1,2,4-triazol-3-one]
316	NC(=O)Nc1cccc(-c2ccc(-c3n[nH]c(=O)n3C[C@@H]3CCN(C(=O)C4CC4)C3)cc2)c1 [Example 103, N-[4′-(4-{[(3R)-1-(cyclopropylcarbonyl)-3-pyrrolidinyl]methyl}-5-oxo-4,5-dihydro-1H-1,2,4-triazol-3-yl)-3-biphenylyl]urea]
50	O=C(C1CC1)N1CC[C@@H](Cn2c(-c3ccc(-c4ccc(Cl)cc4F)cc3)n[nH]c2=O)C1 [Example 105]
72	COc1ccc(-c2ccc(-c3n[nH]c(=S)n3C[C@@H]3CCN(C(=O)C4CC4)C3)cc2)c(Cl)c1 [Example 107, 5-[2′-chloro-4′-(methyloxy)-4-biphenylyl]-4-{[(3R)-1-(cyclopropylcarbonyl)-3-pyrrolidinyl]methyl}-2,4-dihydro-3H-1,2,4-triazole-3-thione]
